IC50 data for 1 compound are collected here from publication PMC2797370 (2009).

For orientation: IC50 means the concentration that inhibits the measured activity by half. A low value points to higher potency.

This assay addresses T1, prostaglandin endoperoxide synthase-2 (PGHS-2) (Mus musculus, UniProt Q05769).
T1 sequence (Q05769 18-604): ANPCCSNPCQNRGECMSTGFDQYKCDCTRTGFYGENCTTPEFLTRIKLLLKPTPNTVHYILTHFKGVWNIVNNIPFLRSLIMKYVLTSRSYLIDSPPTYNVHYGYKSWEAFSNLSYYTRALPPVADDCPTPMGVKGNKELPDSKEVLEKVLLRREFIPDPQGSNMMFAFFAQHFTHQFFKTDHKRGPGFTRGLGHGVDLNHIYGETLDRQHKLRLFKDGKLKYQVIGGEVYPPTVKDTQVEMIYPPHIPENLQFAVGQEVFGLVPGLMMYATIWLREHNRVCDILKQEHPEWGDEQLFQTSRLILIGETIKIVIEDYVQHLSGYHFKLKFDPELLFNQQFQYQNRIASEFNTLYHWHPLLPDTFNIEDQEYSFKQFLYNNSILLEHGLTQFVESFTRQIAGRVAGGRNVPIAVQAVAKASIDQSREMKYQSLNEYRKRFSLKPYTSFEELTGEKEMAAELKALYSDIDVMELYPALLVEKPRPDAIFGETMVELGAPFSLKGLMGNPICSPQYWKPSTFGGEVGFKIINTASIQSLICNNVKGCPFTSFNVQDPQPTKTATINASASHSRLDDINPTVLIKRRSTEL
Briefly: oxygen uptake assay of purified enzyme. The assay is classed as biochemical.

In turn, `CCCCC/C=C\C/C=C\C/C=C\C/C=C\CCCC(=O)Nc1cccc(O)c1` [3-HPAA, N-(3-Hydroxyphenyl)eicosa-5,8,11,14-tetraenamide] yielded an IC50 of 1600 nM.
